Laboratory results from PubChem BioAssay (NCI).
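Cells were grown in 96-well plates and exposed to each compound for 48 hours at five concentrations; endpoints were interpolated linearly between bracketing concentrations, or set to the highest concentration if not reached. GI50 is the concentration that inhibits growth by half. TGI: total growth inhibition.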

Experiments:
Experiment in all cases: NCI anticancer screen, dose series, 48 h
[1] = test system: SF-539 CNS
[2] = test system: HOP-92 NSCLC
[3] = test system: COLO 205 colon
[4] = test system: KM12 colon
[5] = test system: SF-295 CNS
[6] = test system: A498 renal
[7] = test system: IGROV1 ovarian
[8] = test system: UACC-257 melanoma
[9] = test system: SK-OV-3 ovarian
[10] = test system: PC-3 prostate

Row | Compound | TGI [1] | TGI [2] | TGI [3] | TGI [4] | TGI [5] | TGI [6] | TGI [7] | TGI [8] | TGI [9] | GI50 [1] | GI50 [2] | GI50 [4] | GI50 [5] | GI50 [10] | TGI [10] | GI50 [7] | GI50 [8] | GI50 [3] | GI50 [6] | GI50 [9]
1 | CCc1c(OC(C)=O)c2c(NC3OCC(OC(C)=O)C(OC(C)=O)C3OC(C)=O)nc(SC)nc2oc1=O (configuration not stated) | > 100 µM | > 100 µM | > 100 µM | > 100 µM | > 100 µM | > 100 µM | > 100 µM | > 100 µM | > 100 µM |  |  |  |  |  |  |  |  |  |  | 
2 | CC(=O)NNc1nc(C)c(C(=O)/C=C/c2ccc(NC(C)=O)cc2)s1 | > 100 µM | > 100 µM | > 100 µM | > 100 µM | > 100 µM | > 100 µM | > 100 µM | > 100 µM | > 100 µM |  |  |  |  |  |  |  |  |  |  | 
3 | O=C(Oc1ccc(Cl)cc1)c1ccccc1Nc1ccnc(C(F)(F)F)c1 | 32.7 µM | > 100 µM |  | 23.1 µM | > 100 µM |  | > 100 µM | 24.4 µM |  | 15 µM | 20.8 µM | 8.94 µM | 62.8 µM | 17 µM | 63.2 µM | 15.3 µM | 4.51 µM |  |  | 
4 | O=S(=O)(N/N=C/c1cccc(/C=N/NS(=O)(=O)c2ccccc2)c1)c1ccccc1 | > 100 µM | 97.2 µM | > 100 µM | > 100 µM | > 100 µM | > 100 µM | > 100 µM | > 100 µM | > 100 µM |  |  |  |  |  |  |  |  |  |  | 
5 | O=c1ccc2ccccc2cc1[O-].O=c1ccc2ccccc2cc1[O-].[O]=[U+2]=[O] |  | 72.1 µM | 71.7 µM | 69.7 µM | 63.5 µM | 43.1 µM | 84.5 µM | 44.3 µM | 71.2 µM |  | 28.1 µM | 7.15 µM | 17.7 µM |  |  | 23.4 µM | 6.19 µM | 25.3 µM | 18.6 µM | 30.2 µM
6 | CC(C)(C)c1cc2c(O)c3cccc4c(=O)c5cccc6c5-c(c34)c2c(c1)c6=O |  | 96.5 µM | > 100 µM | > 100 µM | > 100 µM | > 100 µM | > 100 µM | > 100 µM | > 100 µM |  |  |  |  |  |  |  |  |  |  | 
7 | Cc1ccc(-n2c3nc(=O)[nH]c(=O)c-3cc3cc([N+](=O)[O-])ccc32)cc1 | 40.8 µM |  | 41.6 µM | 16.1 µM | 37.3 µM | 45.2 µM |  | 70.9 µM | > 100 µM | 13.9 µM |  | 3.79 µM | 15.9 µM | 12.2 µM | 36.6 µM |  | 26.7 µM | 15.6 µM | 20.5 µM | 37.1 µM
8 | CCOC(=O)C1=C(C(=O)OCC)C2c3ccccc3C=CN2C(C(=O)OCC)=C(SC)S1 (configuration not stated) | > 100 µM |  | > 100 µM |  | > 100 µM |  | > 100 µM | > 100 µM | > 100 µM |  |  |  |  |  |  |  |  |  |  | 
9 | O=C1CCC2(c3ccc(Cl)cc3)Nc3ccncc3N12 (configuration not stated) | > 10 µM | > 10 µM |  | > 10 µM | > 10 µM |  | > 10 µM | > 10 µM | > 10 µM |  |  |  |  |  | > 10 µM |  |  |  |  | 
10 | COc1nc(NC2OC(COC(C)=O)C(OC(C)=O)C(OC(C)=O)C2OC(C)=O)c2c(OC(C)=O)cc(=O)oc2n1 (configuration not stated) | > 100 µM | > 100 µM | > 100 µM | > 100 µM | > 100 µM | 30.2 µM | > 100 µM | > 100 µM | > 100 µM |  |  |  |  |  |  |  |  |  |  | 
11 | Cc1ccc(/C=C/C(=O)CCN(C)C)cc1 | 31.3 µM | 38.1 µM | 29.4 µM | 14 µM | > 100 µM | > 100 µM | 37.1 µM | 31 µM | > 100 µM |  |  |  |  |  |  |  |  |  |  | 
12 | CN(C)CCn1c2c3ccccc3ccc2c2oc(=O)c3ccccc3c21 | 7.1 µM | 17.6 µM | > 100 µM | 37 µM | 20.8 µM |  | 55.5 µM | 16.4 µM | 7.35 µM |  |  |  |  |  |  |  |  |  |  | 
13 | CC(C)=CCC(O)C1=CC(=O)c2c(O)ccc(O)c2C1=O (configuration not stated) | 3.01 µM |  | 0.357 µM | 16.9 µM | 9.3 µM | 4.08 µM | 3.31 µM | 3.24 µM | 24 µM |  |  |  |  |  | 5.17 µM |  |  |  |  | 
14 | COC(=O)C(CCCN1C(=O)c2ccccc2C1=O)C(=O)OC | > 100 µM | > 100 µM | > 100 µM | > 100 µM | > 100 µM | > 100 µM | > 100 µM | > 100 µM | > 100 µM |  |  |  |  |  |  |  |  |  |  | 
15 | CCCCN(CCCC)C(=O)C(=O)C(C(=O)c1ccc(OC)cc1)c1ccc(OC)cc1 (configuration not stated) | > 100 µM | > 100 µM | > 100 µM | > 100 µM | > 100 µM |  | > 100 µM | > 100 µM | > 100 µM |  |  |  |  |  |  |  |  |  |  | 
